Test results published in US8524745B2 (Allergan, Inc., priority 2011, dated 2013).

Biological target: T1, CCR2 (Homo sapiens, UniProt P41597)
T1 construct: expressed in transfected cells
Assay: CCR2 calcium activity assay on FLIPR Tetra in HEK-Gqi5 cells stably expressing CCR2
Type: cell-based

T1 sequence (P41597 whole entry, species assumed): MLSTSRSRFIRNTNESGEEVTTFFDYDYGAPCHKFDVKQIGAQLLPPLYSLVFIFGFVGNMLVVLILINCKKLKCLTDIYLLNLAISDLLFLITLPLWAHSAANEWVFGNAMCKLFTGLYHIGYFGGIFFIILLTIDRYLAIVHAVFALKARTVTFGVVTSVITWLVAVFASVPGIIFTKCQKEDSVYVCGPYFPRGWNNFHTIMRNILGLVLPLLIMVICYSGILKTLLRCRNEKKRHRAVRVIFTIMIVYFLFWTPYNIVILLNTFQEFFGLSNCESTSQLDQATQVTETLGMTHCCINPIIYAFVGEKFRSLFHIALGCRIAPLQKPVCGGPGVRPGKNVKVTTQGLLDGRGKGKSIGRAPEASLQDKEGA

SMILES | CCR2 % ANTAG | IC50
Cn1sc(=O)c2cc(S(=O)(=O)Nc3ccccc3NS(=O)(=O)c3c[nH]cn3)ccc21 [N-{2-[(1H-imidazol-4-ylsulfonyl)amino]phenyl}-1-methyl-3-oxo-1,3-dihydro-2,1-benzisothiazole-5-sulfonamide] | 0% | > 8300 nM
Cn1sc(=O)c2cc(S(=O)(=O)Nc3ccccc3NS(=O)(=O)c3ccco3)ccc21 [N-{2-[(2-furylsulfonyl)amino]phenyl}-1-methyl-3-oxo-1,3-dihydro-2,1-benzisothiazole-5-sulfonamide] | 104% | 744 nM
Cn1sc(=O)c2cc(S(=O)(=O)Nc3ccccc3NS(=O)(=O)c3ccoc3)ccc21 [N-{2-[(3-furylsulfonyl)amino]phenyl}-1-methyl-3-oxo-1,3-dihydro-2,1-benzisothiazole-5-sulfonamide] | 73% | 
Cn1sc(=O)c2cc(S(=O)(=O)Nc3c(Cl)cccc3NS(=O)(=O)c3cccs3)ccc21 [N-{2-chloro-6-[(2-thienylsulfonyl)amino]phenyl}-1-methyl-3-oxo-1,3-dihydro-2,1-benzisothiazole-5-sulfonamide] | 106% | 468 nM
Cn1sc(=O)c2cc(S(=O)(=O)Nc3c(F)cccc3NS(=O)(=O)c3cccs3)ccc21 [N-{2-fluoro-6-[(2-thienylsulfonyl)amino]phenyl}-1-methyl-3-oxo-1,3-dihydro-2,1-benzisothiazole-5-sulfonamide] | 105% | 471 nM
Cn1sc(=O)c2cc(S(=O)(=O)Nc3cccc(Cl)c3NS(=O)(=O)c3cccs3)ccc21 [N-{3-chloro-2-[(2-thienylsulfonyl)amino]phenyl}-1-methyl-3-oxo-1,3-dihydro-2,1-benzisothiazole-5-sulfonamide] | 100% | 823 nM
COc1cccc(NS(=O)(=O)c2ccc3c(c2)c(=O)sn3C)c1NS(=O)(=O)c1cccs1 [N-{3-methoxy-2-[(2-thienylsulfonyl)amino]phenyl}-1-methyl-3-oxo-1,3-dihydro-2,1-benzisothiazole-5-sulfonamide] | 52% | 
Cn1sc(=O)c2cc(S(=O)(=O)Nc3cc(Cl)c(Cl)cc3NS(=O)(=O)c3cccs3)ccc21 [N-{4,5-dichloro-2-[(2-thienylsulfonyl)amino]phenyl}-1-methyl-3-oxo-1,3-dihydro-2,1-benzisothiazole-5-sulfonamide] | 99% | 361 nM
Cc1cc(NS(=O)(=O)c2ccc3c(c2)c(=O)sn3C)c(NS(=O)(=O)c2cccs2)cc1C [N-{4,5-dimethyl-2-[(2-thienylsulfonyl)amino]phenyl}-1-methyl-3-oxo-1,3-dihydro-2,1-benzisothiazole-5-sulfonamide] | 91% | 2190 nM
CN(C)c1ccc(NS(=O)(=O)c2ccc3c(c2)c(=O)sn3C)c(NS(=O)(=O)c2cccs2)c1 [N-{4-(dimethylamino)-2-[(2-thienylsulfonyl)amino]phenyl}-1-methyl-3-oxo-1,3-dihydro-2,1-benzisothiazole-5-sulfonamide] | 78% | 1230 nM
Cn1sc(=O)c2cc(S(=O)(=O)Nc3cc(C(F)(F)F)c(Cl)cc3NS(=O)(=O)c3cccs3)ccc21 [N-{4-chloro-2-[(2-thienylsulfonyl)amino]-5-(trifluoromethyl)phenyl}-1-methyl-3-oxo-1,3-dihydro-2,1-benzisothiazole-5-sulfonamide] | 87% | 522 nM
Cn1sc(=O)c2cc(S(=O)(=O)Nc3ccc(Cl)cc3NS(=O)(=O)c3cccs3)ccc21 [N-{4-chloro-2-[(2-thienylsulfonyl)amino]phenyl}-1-methyl-3-oxo-1,3-dihydro-2,1-benzisothiazole-5-sulfonamide] | 102% | 393 nM
Cc1cc(NS(=O)(=O)c2ccc3c(c2)c(=O)sn3C)c(NS(=O)(=O)c2cccs2)cc1Cl [N-{4-chloro-5-methyl-2-[(2-thienylsulfonyl)amino]phenyl}-1-methyl-3-oxo-1,3-dihydro-2,1-benzisothiazole-5-sulfonamide] | 75% | 311 nM
